Results: patent US20250340561A1, “QUINAZOLINE COMPOUND FOR INDUCING DEGRADATION OF G12D MUTANT KRAS PROTEIN” (Astellas Pharma Inc., priority 2021, published 2025)

Molecular target: T1, KRAS G12D (Homo sapiens, UniProt P01116, G12D)
T1 construct: host or cells: AsPC-1 human pancreatic cancer cells
Assay: Test Example 1-2: KRAS degradation action in AsPC-1, Cell ELISA
Assay type: cell-based
Conditions: AsPC-1 cells, overnight treatment, corrected with β-actin, 0% = 10 μM Example No. 26 (Example No. 8 for Example Nos. 74 and 75)
Procedure: Test Example 1-2: Evaluation of KRAS Degradation Action on Human G12D Mutant KRAS-Positive Pancreatic Cancer Line AsPC-1
The KRAS degradation action of test compounds was evaluated by measuring the expression levels of KRAS G12D by Cell ELISA.
[…] As for the cell culture conditions, a RPMI 1640 medium containing 10% fetal bovine serum was used in the presence of 5% CO2 at 37° C. The next day, the test compounds (10 points having final concentrations in the range of 10 μM to 0.3 nM), the compound of Example No. 26 (Example No. 8 for Example Nos. 74 and 75) of a final concentration of 10 μM as a positive control and DMSO, which was the solvent for the test compounds, as a negative control were diluted 500-fold with a fresh medium and were added at 20 μL per well. The cells were cultured overnight.
The next day, the culture supernatant was removed, and 4% paraformaldehyde phosphate buffer (from FUJIFILM Wako Pure Chemical Corporation) was added at 20 μL per well. The plate was allowed to stand for 30 minutes at room temperature to thus immobilize the cells. Then, the supernatant was removed, and 0.1% Triton X-100 (from Amersham Biosciences)-containing PBS was added at 20 μL per well. After allowing to stand for 10 minutes at room temperature, the supernatant was removed. PBS was added at 25 μL per well, and the supernatant was removed to thus wash each well. The washing was performed twice in total. Next, the supernatant was removed, and 0.5% sodium dodecyl sulfate (SDS; from Invitrogen)-containing PBS was added at 20 μL per well. After allowing to stand at room temperature for 10 minutes, the supernatant was removed by centrifugation (using a centrifugal dehydrator machine, the supernatant was removed by the same method hereinafter). PBS was added at 25 μL per well, and the supernatant was removed to thus wash each well. The washing was performed twice in total. The supernatant was removed by centrifugation, and a blocking solution (Intercept Blocking Buffer) was added at 20 μL per well. After allowing to stand for 30 minutes at room temperature, the supernatant was removed by centrifugation, and a solution obtained by diluting an anti-Ras (G12D Mutant Specific) antibody and an anti-3-actin antibody 1,000-fold with a blocking solution was added at 20 μL per well as a primary antibody. The plate was allowed to stand overnight at 4° C.
The next day, the plate was centrifuged to remove the supernatant. PBS was added at […], and the supernatant was removed to thus wash each well. The washing was performed twice in total. The supernatant was removed by centrifugation, and a solution obtained by diluting Donkey anti-Mouse IgG H&L (TRDye 680RD) (from Li—COR Biosciences) and Goat anti-Rabbit IgG H&L (IRDye 800CW) (from Li—COR Biosciences) 1,000-fold with a blocking solution was added at 20 μL per well as a secondary antibody. After allowing to stand for 1 hour at room temperature, the supernatant was removed. PBS was added at 25 μL per well, and the supernatant was removed to thus wash each well. The washing was performed twice in total. After removing the supernatant by centrifuging the plate, the plate was dried as it was with air at room temperature for 2 hours or more, and the 700-nm and 800-nm fluorescent signals were measured with Aerius (from LI-COR Biosciences).
With the signaling value at the time of addition of DMSO corrected with the signaling value of β-actin taken as 100% and with the signaling value at the time of addition of 10 μM of the compound of Example No. 26 taken as 0%, the 50% degradation values (DC50) of the amounts of KRAS were calculated by Sigmoid-Emax model nonlinear regression analysis. The molecular weights of the test compounds were calculated as the molecular weights of the trihydrochloride for Example No. 30, the tetrahydrochloride for Example No. 46 and the free forms forming no salt for the remaining Example Nos. The results for some test compounds of the formula (I) are shown in Table 2.

T1 sequence (P01116 1-188 isoform P01116-2 G12D): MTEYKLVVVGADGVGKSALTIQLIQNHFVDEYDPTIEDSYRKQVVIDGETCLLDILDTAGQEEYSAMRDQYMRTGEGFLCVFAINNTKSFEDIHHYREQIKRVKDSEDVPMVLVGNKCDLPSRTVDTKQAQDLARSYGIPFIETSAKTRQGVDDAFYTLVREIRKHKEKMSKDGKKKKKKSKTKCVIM

SMILES | DC50
COCC1(COc2nc(N3C[C@@H]4C[C@H]3CN4)c3cc(C4CC4)c(-c4c(C)c(F)cc5[nH]ncc45)c(OCc4ccc(-c5cn([C@H](C(=O)N6C[C@H](O)C[C@H]6C(=O)N[C@@H](CO)c6ccc(-c7scnc7C)cc6)C(C)C)nn5)cc4)c3n2)CC1 [Example 62] | 10 nM
Cc1ncsc1-c1ccc([C@H](CO)NC(=O)[C@@H]2C[C@@H](O)CN2C(=O)[C@H](C(C)C)n2cc(-c3ccc(COc4c(-c5c(C)c(F)cc6[nH]ncc56)c(C5CC5)cc5c(N6C[C@@H]7C[C@H]6CN7)nc(OC[C@@H]6CCCN6C)nc45)cc3)nn2)cc1 [Example 57] | 134 nM
Cc1ncsc1-c1ccc([C@H](CO)NC(=O)[C@@H]2C[C@@H](O)CN2C(=O)[C@H](C(C)C)n2cc(-c3ccc(COc4c(-c5c(C)c(F)cc6[nH]ncc56)c(C5CC5)cc5c(N6C[C@@H]7C[C@H]6CN7)nc(OC6CCOCC6)nc45)cc3)nn2)nc1 [Example 35] | 84 nM
Cc1ncsc1-c1ccc([C@H](CO)NC(=O)[C@@H]2C[C@@H](O)CN2C(=O)[C@H](C(C)C)n2cc(-c3ccc(COc4c(-c5c(C)c(F)cc6[nH]ncc56)c(C5CC5)cc5c(N6C[C@@H]7C[C@H]6CN7)nc(O[C@H](C)CN(C)C)nc45)cc3)nn2)cc1 [Example 46] | 37 nM
COCCN1CC[C@H](Oc2nc(N3C[C@@H]4C[C@H]3CN4)c3cc(C4CC4)c(-c4c(C)c(F)cc5[nH]ncc45)c(OCc4ccc(-c5cn([C@H](C(=O)N6C[C@H](O)C[C@H]6C(=O)N[C@@H](CO)c6ccc(-c7scnc7C)cc6)C(C)C)nn5)cc4)c3n2)C1 [Example 32] | 139 nM
Cc1ncsc1-c1ccc([C@H](CO)NC(=O)[C@@H]2C[C@@H](O)CN2C(=O)[C@H](C(C)C)n2cc(-c3ccc(COc4c(-c5c(C)c(F)cc6[nH]ncc56)c(C5CC5)cc5c(N6C[C@@H]7C[C@H]6CN7)nc(OC6CCOCC6)nc45)cc3F)nn2)cc1 [Example 49, (4R)-1-[(2S)-2-(4-{4-[({6-cyclopropyl-4-[(1S,4S)-2,5-diazabicyclo[2.2.1]heptan-2-yl]-7-(6-fluoro-5-methyl-1H-indazol-4-yl)-2-[(oxan-4-yl)oxy]quinazolin-8-yl}oxy)methyl]-2-fluorophenyl}-1H-1,2,3-triazol-1-yl)-3-methylbutanoyl]-4-hydroxy-N-{(1R)-2-hydroxy-1-[4-(4-methyl-1,3-thiazol-5-yl)phenyl]ethyl}-L-prolinamide] | 15 nM
Cc1ncsc1-c1ccc([C@H](CO)NC(=O)[C@@H]2C[C@@H](O)CN2C(=O)[C@H](C(C)C)n2cc(-c3ccc(COc4c(-c5c(C)c(F)cc6[nH]ncc56)c(C5CC5)cc5c(N6C[C@@H]7C[C@H]6CN7)nc(OC[C@H](C)N6CCOCC6)nc45)cc3)nn2)cc1 [Example 65] | 14 nM
Cc1ncsc1-c1ccc([C@H](CO)NC(=O)[C@@H]2C[C@@H](O)CN2C(=O)[C@H](C(C)C)n2cc(-c3ccc(COc4c(-c5c(C)c(F)cc6[nH]ncc56)c(C5CC5)cc5c(N6C[C@@H]7C[C@H]6CN7)nc(OC[C@@H]6CCOC6)nc45)cc3)nn2)cc1 [Example 53] | 8 nM
CO[C@@H](C)COc1nc(N2C[C@@H]3C[C@H]2CN3)c2cc(C3CC3)c(-c3c(C)c(F)cc4[nH]ncc34)c(OCc3ccc(-c4cn([C@H](C(=O)N5C[C@H](O)C[C@H]5C(=O)N[C@@H](CO)c5ccc(-c6ocnc6C)cc5)C(C)C)nn4)cc3)c2n1 [Example 72] | 16 nM
CCn1nccc1-c1ccc([C@H](CO)NC(=O)[C@@H]2C[C@@H](O)CN2C(=O)[C@H](C(C)C)n2cc(-c3ccc(COc4c(-c5c(C)c(F)cc6[nH]ncc56)c(C5CC5)cc5c(N6C[C@@H]7C[C@H]6CN7)nc(OC[C@H](C)OC)nc45)cc3)nn2)cc1 [Example 70] | 14 nM
COC[C@H](CN1CCOCC1)Oc1nc(N2C[C@@H]3C[C@H]2CN3)c2cc(C3CC3)c(-c3c(C)c(F)cc4[nH]ncc34)c(OCc3ccc(-c4cn([C@H](C(=O)N5C[C@H](O)C[C@H]5C(=O)N[C@@H](CO)c5ccc(-c6scnc6C)cc5)C(C)C)nn4)cc3)c2n1 [Example 55] | 24 nM
Cc1ncsc1-c1ccc([C@H](CO)NC(=O)[C@@H]2C[C@@H](O)CN2C(=O)[C@H](C(C)C)n2cc(-c3ccc(COc4c(-c5c(C)c(F)cc6[nH]ncc56)c(C5CC5)cc5c(N6C[C@@H]7C[C@H]6CN7)nc(O[C@H]6CCN(CCO)C6)nc45)cc3)nn2)cc1 [Example 31] | 138 nM
Cc1c(F)cc2[nH]ncc2c1-c1c(C2CC2)cc2c(N3C[C@@H]4C[C@H]3CN4)nc(OC3CCOCC3)nc2c1OCc1ccc(-c2cn([C@H](C(=O)N3C[C@H](O)C[C@H]3C(=O)N[C@@H](CO)c3ccccc3F)C(C)C)nn2)cc1 [Example 30] | 157 nM
COC[C@H](C)Oc1nc(N2C[C@@H]3C[C@H]2CN3)c2cc(C3CC3)c(-c3c(C)c(F)cc4[nH]ncc34)c(OCc3ccc(-c4cn([C@H](C(=O)N5C[C@H](O)C[C@H]5C(=O)N[C@@H](CO)c5ccc(-c6scnc6C)cc5)C(C)C)nn4)cc3)c2n1 [Example 54] | 8 nM
Cc1ncsc1-c1ccc([C@H](CO)NC(=O)[C@@H]2C[C@@H](O)CN2C(=O)[C@H](C(C)C)n2cc(-c3ccc(COc4c(-c5c(C)c(F)cc6[nH]ncc56)c(C5CC5)cc5c(N6C[C@@H]7C[C@H]6CN7)nc(O[C@@H](C)[C@H](C)O)nc45)cc3)nn2)cc1 [Example 42] | 6 nM
Cc1ncsc1-c1ccc([C@H](CO)NC(=O)[C@@H]2C[C@@H](O)CN2C(=O)[C@H](C(C)C)n2cc(-c3ccc(COc4c(-c5c(C)c(F)cc6[nH]ncc56)c(C5CC5)cc5c(N6C[C@@H]7C[C@H]6CN7)nc(NCCO)nc45)cc3)nn2)cc1 [Example 66] | 250 nM
Cc1ncsc1-c1ccc([C@H](CO)NC(=O)[C@@H]2C[C@@H](O)CN2C(=O)[C@H](C(C)C)n2cc(-c3ccc(COc4c(-c5c(C)c(F)cc6[nH]ncc56)c(C5CC5)cc5c(N6C[C@@H]7C[C@H]6CN7)nc(O[C@H](C)[C@@H](C)O)nc45)cc3)nn2)cc1 (atropisomer, axis not shown) [Example 37] | 25 nM
Cc1ncsc1-c1ccc([C@H](CO)NC(=O)[C@@H]2C[C@@H](O)CN2C(=O)[C@H](C2CC2)n2cc(-c3ccc(COc4c(-c5c(C)c(F)cc6[nH]ncc56)c(C5CC5)cc5c(N6C[C@@H]7C[C@H]6CN7)nc(OC6CCOCC6)nc45)cc3)nn2)cc1 [Example 73] | 134 nM
Cc1ncoc1-c1ccc([C@H](CO)NC(=O)[C@@H]2C[C@@H](O)CN2C(=O)[C@H](C(C)C)n2cc(-c3ccc(COc4c(-c5c(C)c(F)cc6[nH]ncc56)c(C5CC5)cc5c(N6C[C@@H]7C[C@H]6CN7)nc(OC6CCOCC6)nc45)cc3)nn2)cc1 [Example 38] | 53 nM
